From patent US7320972B2, “4-Biarylyl-1-phenylazetidin-2-ones” (Microbia, Inc., priority 2003, dated 2008)

Tested on: cholesterol absorption (serum 3H-cholesterol)
Assay: In Vivo Assay of Hypolipidemic Agents using the Rat Cholesterol Absorption Model
Set-up: species or system Sprague-Dawley rats
Settings: peroral; for inhibition in vivo at 1 mg/kg: po, serum 3H-cholesterol 3 h after cholesterol dose, vs vehicle control; for % inhibition at 0.3 mg/kg: 0.3 mg/kg (footnote 6)
Experimental: In Vivo Assay of Hypolipidemic Agents using the Rat Cholesterol Absorption Model. This model is based on models described by Burnett et al (2002), Bioorg. Med. Chem. Lett. 2002 Feb. 11;12(3):315-8 and J. Lipid Res. 1999 October;40(10):1747-57. Female Sprague-Dawley rats weighing 150-250 g are separated into groups of […] and fasted overnight. The animals (4-6/group) are dosed perorally with 300 μL test compounds in olive oil or suitable vehicle. Thirty minutes later, 3-5 microCuries ^3H-cholesterol per rat are delivered perorally in 300 μL olive oil. After three hours, 200 μL serum is collected, vortexed with scintillation fluid, and measured for radioactivity in a scintillation counter. Percent inhibition is defined as 100*(1−Ctest/Cctrl), where Ctest and Cctl refer to ^3H levels in serum for the test compound and for the vehicle only control, respectively. Percent inhibition values are reported for a fixed dose. The ED50 is the dose at which the half-maximal effect on serum ^3H levels is observed for a given test compound.
Representative compounds of the invention were tested in the Rat Cholesterol Absorption model above.

[1] = serum 3H-cholesterol vs vehicle control

SMILES | inhibition in vivo at 1 mg/kg | other results
O=C1[C@H](CCC(O)c2ccc(F)cc2)[C@@H](c2ccc(-c3cccc(S(=O)(=O)O)c3)cc2O)N1c1ccccc1 (stereo partly drawn) [Example 53, Sodium 4′-{(2S,3R)-3-[(3S/R)-3-(4-fluorophenyl)-3-hydroxypropyl]-4-oxo-1-phenylazetidin-2-yl}-3′-hydroxybiphenyl-3-sulfonate] | 78% | –
O=C1[C@H](CC[C@H](O)c2ccc(F)cc2)[C@@H](c2ccc(-c3cccc(P(=O)(O)O)c3)cc2)N1c1ccccc1 [Example 56, (4′-{(2S,3R)-3-[(3S)-3-(4-Fluorophenyl)-3-hydroxypropyl]-4-oxo-1-phenylazetidin-2-yl}biphenyl-3-yl)phosphonic acid] | 59% | –
O=C1[C@H](CC[C@H](O)c2ccc(F)cc2)[C@@H](c2ccc(-c3cccc(O)c3)cc2)N1c1ccccc1 [Example 57, (3R,4S)-3-[(3S)-3-(4-Fluorophenyl)-3-hydroxypropyl]-4-(3′-hydroxybiphenyl-4-yl)-1-phenylazetidin-2-one] | 73% | –
O=C1[C@H](CC[C@H](O)c2ccc(F)cc2)[C@@H](c2ccc(-c3cccc(B(O)O)c3)cc2)N1c1ccccc1 [Example 59, (4′-{(2S,3R)-3-[(3S)-3-(4-Fluorophenyl)-3-hydroxypropyl]-4-oxo-1-phenylazetidin-2-yl}biphenyl-3-yl)boronic acid] | 70% | –
O=C1[C@H](CC[C@H](O)c2ccc(F)cc2)[C@@H](c2ccc(-c3cccc(P(=O)(O)O)c3)cc2O)N1c1ccccc1 [Example 61, (4′-{(2S,3R)-3-[(3S)-3-(4-Fluorophenyl)-3-hydroxypropyl]-4-oxo-1-phenylazetidin-2-yl}-3′-hydroxybiphenyl-3-yl)phosphonic Acid] | – | % inhibition at 5 mg/kg (5 mg/kg (footnote 3), serum 3H-cholesterol vs vehicle control): 58^3%
O=C1[C@H](CC[C@H](O)c2ccc(F)cc2)[C@@H](c2ccc(-c3cccc([C@@H]4O[C@H](CO)[C@@H](O)[C@H](O)[C@H]4O)c3)cc2)N1c1ccccc1 [Example 64, (1S)-1,5-Anhydro-1-(4′-{(2S,3R)-3-[(3S)-3-(4-fluorophenyl)-3-hydroxypropyl]-4-oxo-1-phenylazetidin-2-yl}biphenyl-3-yl)-D-glucitol] | 67% | –
O=C1[C@H](CC[C@H](O)c2ccc(F)cc2)[C@@H](c2ccc(-c3cccc([C@@H]4O[C@H](CO)[C@@H](O)[C@H](O)[C@H]4O)c3)cc2O)N1c1ccccc1 [Example 65, (1S)-1,5-Anhydro-1-(4′-{(2S,3R)-3-[(3S)-3-(4-fluorophenyl)-3-hydroxypropyl]-4-oxo-1-phenylazetidin-2-yl}-3′-hydroxybiphenyl-3-yl)-D-glucitol] | – | % inhibition at 0.1 mg/kg (0.1 mg/kg (footnote 5), serum 3H-cholesterol vs vehicle control): 60^5%
O=C1[C@H](CC[C@H](O)c2ccc(F)cc2)[C@@H](c2ccc(-c3ccc([C@@H]4O[C@H](CO)[C@@H](O)[C@H](O)[C@H]4O)cc3)cc2O)N1c1ccccc1 [Example 66, (1S)-1,5-Anhydro-1-(4′-{(2S,3R)-3-[(3S)-3-(4-fluorophenyl)-3-hydroxypropyl]-4-oxo-1-phenylazetidin-2-yl}-3′-hydroxybiphenyl-4-yl)-D-glucitol] | – | % inhibition at 0.3 mg/kg [1]: 71^6%
O=C1[C@H](CC[C@H](O)c2ccc(F)cc2)[C@@H](c2ccc(-c3cccc([C@H](O)[C@H]4OC(O)[C@H](O)[C@@H](O)[C@@H]4O)c3)cc2)N1c1ccccc1 (stereo partly drawn) [Example 71, (6S)-6-C-(4′-{(2S,3R)-3-[(3S)-3-(4-Fluorophenyl)-3-hydroxypropyl]-4-oxo-1-phenylazetidin-2-yl}biphenyl-3-yl)-D-glucopyranose] | 65% | –
O=C1[C@H](CC[C@H](O)c2ccc(F)cc2)[C@@H](c2ccc(-c3cccc([C@@H](O)[C@H]4OC(O)[C@H](O)[C@@H](O)[C@@H]4O)c3)cc2)N1c1ccccc1 (stereo partly drawn) [Example 72, (6R)-6-C-(4′-{(2S,3R)-3-[(3S)-3-(4-Fluorophenyl)-3-hydroxypropyl]-4-oxo-1-phenylazetidin-2-yl}biphenyl-3-yl)-D-glucopyranose] | – | % inhibition at 0.3 mg/kg [1]: 27^6%
O=C1[C@H](CC[C@H](O)c2ccc(F)cc2)[C@@H](c2ccc(-c3cccc([C@H](O)[C@H]4OC(O)[C@H](O)[C@@H](O)[C@@H]4O)c3)cc2O)N1c1ccccc1 (stereo partly drawn) [Example 73, (6S)-6-C-(4′-{(2S,3R)-3-[(3S)-3-(4-Fluorophenyl)-3-hydroxypropyl]-4-oxo-1-phenylazetidin-2-yl}-3′-hydroxybiphenyl-3-yl)-D-glucopyranose] | 59% | –
O=C1[C@H](CC[C@H](O)c2ccc(F)cc2)[C@@H](c2ccc(-c3cccc([C@@H](O)[C@H]4OC(O)[C@H](O)[C@@H](O)[C@@H]4O)c3)cc2O)N1c1ccccc1 (stereo partly drawn) [Example 74, (6R)-6-C-(4′-{(2S,3R)-3-[(3S)-3-(4-Fluorophenyl)-3-hydroxypropyl]-4-oxo-1-phenylazetidin-2-yl}-3′-hydroxybiphenyl-3-yl)-D-glucopyranose] | 67% | –
O=C1[C@H](CC[C@H](O)c2ccc(F)cc2)[C@@H](c2ccc(-c3cccc([C@H](O)[C@@H](O)[C@@H](O)[C@H](O)[C@@H](O)CO)c3)cc2O)N1c1ccccc1 [Example 75, (6S)-6-C-(4′-{(2S,3R)-3-[(3S)-3-(4-Fluorophenyl)-3-hydroxypropyl]-4-oxo-1-phenylazetidin-2-yl}-3′-hydroxybiphenyl-3-yl)-D-glucitol] | 68% | –
O=C1[C@H](CC[C@H](O)c2ccc(F)cc2)[C@@H](c2ccc(-c3cccc(OC[C@H]4OC(O)[C@H](O)[C@@H](O)[C@@H]4O)c3)cc2)N1c1ccc(F)cc1 (stereo partly drawn) [Example 76, 6-O-(4′-{(2S,3R)-1-(4-Fluorophenyl)-3-[(3S)-3-(4-fluorophenyl)-3-hydroxypropyl]-4-oxoazetidin-2-yl}biphenyl-3-yl)-D-glucopyranose] | 56% | –
CO[C@H]1O[C@H](COc2cccc(-c3ccc([C@@H]4[C@@H](CC[C@H](O)c5ccc(F)cc5)C(=O)N4c4ccc(F)cc4)cc3)c2)[C@@H](O)[C@H](O)[C@H]1O [Example 77, Methyl 6-O-(4′-{(2S,3R)-1-(4-fluorophenyl)-3-[(3S)-3-(4-fluorophenyl)-3-hydroxypropyl]-4-oxoazetidin-2-yl}biphenyl-3-yl)-α-D-glucopyranoside] | 70% | –
O=C1[C@H](CC[C@H](O)c2ccc(F)cc2)[C@@H](c2ccc(-c3cccc(OC[C@@H](O)[C@@H](O)[C@H](O)[C@@H](O)CO)c3)cc2)N1c1ccc(F)cc1 [Example 78, 6-O-(4′-{(2S,3R)-1-(4-Fluorophenyl)-3-[(3S)-3-(4-fluorophenyl)-3-hydroxypropyl]-4-oxoazetidin-2-yl}biphenyl-3-yl)-D-glucitol] | 51% | –
COc1ccc(-c2ccc([C@@H]3[C@@H](CC[C@H](O)c4ccc(F)cc4)C(=O)N3c3ccc(F)cc3)cc2)cc1OC [Example 81, (3R,4S)-4-(3′,4′-dimethoxybiphenyl-4-yl)-1-(4-fluorophenyl)-3-[(3S)-3-(4-fluorophenyl)-3-hydroxypropyl]azetidin-2-one] | 17% | –
CSc1cccc(-c2ccc([C@@H]3[C@@H](CC[C@H](O)c4ccc(F)cc4)C(=O)N3c3ccc(F)cc3)cc2)c1 [Example 82, (3R,4S)-1-(4-fluorophenyl)-3-[(3S)-3-(4-fluorophenyl)-3-hydroxypropyl]-4-[3′-(methylthio)biphenyl-4-yl]azetidin-2-one] | 28% | –
